Measured values from patent publication US9340590B2 (priority 2011, dated 2016).
Where two headings read alike, the source gives them in different places. Positions of bridges follow the written chain, without caps; N, C: chain ends. Non-standard residues stand in square brackets, D forms with d. Residues, ends and D or L forms follow the SMILES beside them. 1Nal = N[C@@H](Cc1cccc2ccccc12)C(=O)O; 3Pal = N[C@@H](Cc1cccnc1)C(=O)O; Chg = N[C@H](C(=O)O)C1CCCCC1

Assays:
Assay in all cases: cell-based
hNav1.7 = hNav1.7 (Homo sapiens, UniProt Q15858); assay type: cell-based; conditions: IonWorks Quattro, read-out: IWQ Use Nav1.7
Sequence of hNav1.7 (Q15858 whole entry, looked up): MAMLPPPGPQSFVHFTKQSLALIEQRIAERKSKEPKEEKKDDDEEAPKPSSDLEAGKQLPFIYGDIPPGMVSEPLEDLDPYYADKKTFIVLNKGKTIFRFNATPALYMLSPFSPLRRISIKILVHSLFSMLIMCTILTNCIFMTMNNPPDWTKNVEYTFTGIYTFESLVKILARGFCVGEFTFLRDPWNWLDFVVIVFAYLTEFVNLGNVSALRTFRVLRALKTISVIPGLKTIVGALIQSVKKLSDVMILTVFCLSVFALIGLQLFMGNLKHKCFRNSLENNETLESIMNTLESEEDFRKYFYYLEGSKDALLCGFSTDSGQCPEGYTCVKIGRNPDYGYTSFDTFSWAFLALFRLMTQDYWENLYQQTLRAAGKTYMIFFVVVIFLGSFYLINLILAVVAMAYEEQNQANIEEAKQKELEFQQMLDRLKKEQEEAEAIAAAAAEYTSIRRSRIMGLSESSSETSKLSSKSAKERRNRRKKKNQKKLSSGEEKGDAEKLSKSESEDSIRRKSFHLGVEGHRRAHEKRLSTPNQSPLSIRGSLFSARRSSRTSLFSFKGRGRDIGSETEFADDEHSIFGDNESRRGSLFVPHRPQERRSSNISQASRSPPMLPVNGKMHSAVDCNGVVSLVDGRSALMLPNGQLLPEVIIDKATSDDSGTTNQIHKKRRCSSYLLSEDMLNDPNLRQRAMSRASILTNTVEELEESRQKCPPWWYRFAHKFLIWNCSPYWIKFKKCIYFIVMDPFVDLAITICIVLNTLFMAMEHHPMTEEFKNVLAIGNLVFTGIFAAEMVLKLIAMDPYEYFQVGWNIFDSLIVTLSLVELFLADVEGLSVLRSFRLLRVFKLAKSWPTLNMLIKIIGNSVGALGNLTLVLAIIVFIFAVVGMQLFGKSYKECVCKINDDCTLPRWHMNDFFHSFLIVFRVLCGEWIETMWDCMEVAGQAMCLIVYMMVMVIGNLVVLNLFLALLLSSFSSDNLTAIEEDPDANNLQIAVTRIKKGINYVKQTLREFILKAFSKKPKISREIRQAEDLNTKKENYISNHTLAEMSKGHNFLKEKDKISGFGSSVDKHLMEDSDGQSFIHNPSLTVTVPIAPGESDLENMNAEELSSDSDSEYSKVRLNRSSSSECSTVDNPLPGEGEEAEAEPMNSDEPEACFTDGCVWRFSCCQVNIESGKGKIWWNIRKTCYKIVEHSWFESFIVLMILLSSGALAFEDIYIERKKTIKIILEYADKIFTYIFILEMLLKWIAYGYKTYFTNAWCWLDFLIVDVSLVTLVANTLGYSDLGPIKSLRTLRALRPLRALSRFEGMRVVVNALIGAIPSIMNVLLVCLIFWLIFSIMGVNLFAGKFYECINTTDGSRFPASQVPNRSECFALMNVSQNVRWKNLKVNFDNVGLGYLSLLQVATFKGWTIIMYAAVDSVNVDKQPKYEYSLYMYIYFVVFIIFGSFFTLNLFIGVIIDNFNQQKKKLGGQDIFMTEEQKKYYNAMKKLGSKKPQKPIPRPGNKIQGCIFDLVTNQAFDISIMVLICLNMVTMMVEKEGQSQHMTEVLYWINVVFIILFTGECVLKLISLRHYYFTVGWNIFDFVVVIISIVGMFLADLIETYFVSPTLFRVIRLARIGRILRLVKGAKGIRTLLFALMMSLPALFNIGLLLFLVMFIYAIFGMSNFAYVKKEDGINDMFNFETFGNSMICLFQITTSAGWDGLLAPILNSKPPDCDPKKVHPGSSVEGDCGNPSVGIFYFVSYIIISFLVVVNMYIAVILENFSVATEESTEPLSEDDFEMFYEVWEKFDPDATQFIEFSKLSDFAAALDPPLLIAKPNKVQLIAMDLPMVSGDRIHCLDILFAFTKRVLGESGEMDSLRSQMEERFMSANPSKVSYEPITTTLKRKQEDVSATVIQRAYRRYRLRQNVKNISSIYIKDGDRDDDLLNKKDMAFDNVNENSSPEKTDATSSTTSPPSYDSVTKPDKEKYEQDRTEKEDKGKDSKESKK

hNav1.5 = hNav1.5 (Homo sapiens, UniProt Q14524)
Sequence of hNav1.5 (Q14524 whole entry, looked up): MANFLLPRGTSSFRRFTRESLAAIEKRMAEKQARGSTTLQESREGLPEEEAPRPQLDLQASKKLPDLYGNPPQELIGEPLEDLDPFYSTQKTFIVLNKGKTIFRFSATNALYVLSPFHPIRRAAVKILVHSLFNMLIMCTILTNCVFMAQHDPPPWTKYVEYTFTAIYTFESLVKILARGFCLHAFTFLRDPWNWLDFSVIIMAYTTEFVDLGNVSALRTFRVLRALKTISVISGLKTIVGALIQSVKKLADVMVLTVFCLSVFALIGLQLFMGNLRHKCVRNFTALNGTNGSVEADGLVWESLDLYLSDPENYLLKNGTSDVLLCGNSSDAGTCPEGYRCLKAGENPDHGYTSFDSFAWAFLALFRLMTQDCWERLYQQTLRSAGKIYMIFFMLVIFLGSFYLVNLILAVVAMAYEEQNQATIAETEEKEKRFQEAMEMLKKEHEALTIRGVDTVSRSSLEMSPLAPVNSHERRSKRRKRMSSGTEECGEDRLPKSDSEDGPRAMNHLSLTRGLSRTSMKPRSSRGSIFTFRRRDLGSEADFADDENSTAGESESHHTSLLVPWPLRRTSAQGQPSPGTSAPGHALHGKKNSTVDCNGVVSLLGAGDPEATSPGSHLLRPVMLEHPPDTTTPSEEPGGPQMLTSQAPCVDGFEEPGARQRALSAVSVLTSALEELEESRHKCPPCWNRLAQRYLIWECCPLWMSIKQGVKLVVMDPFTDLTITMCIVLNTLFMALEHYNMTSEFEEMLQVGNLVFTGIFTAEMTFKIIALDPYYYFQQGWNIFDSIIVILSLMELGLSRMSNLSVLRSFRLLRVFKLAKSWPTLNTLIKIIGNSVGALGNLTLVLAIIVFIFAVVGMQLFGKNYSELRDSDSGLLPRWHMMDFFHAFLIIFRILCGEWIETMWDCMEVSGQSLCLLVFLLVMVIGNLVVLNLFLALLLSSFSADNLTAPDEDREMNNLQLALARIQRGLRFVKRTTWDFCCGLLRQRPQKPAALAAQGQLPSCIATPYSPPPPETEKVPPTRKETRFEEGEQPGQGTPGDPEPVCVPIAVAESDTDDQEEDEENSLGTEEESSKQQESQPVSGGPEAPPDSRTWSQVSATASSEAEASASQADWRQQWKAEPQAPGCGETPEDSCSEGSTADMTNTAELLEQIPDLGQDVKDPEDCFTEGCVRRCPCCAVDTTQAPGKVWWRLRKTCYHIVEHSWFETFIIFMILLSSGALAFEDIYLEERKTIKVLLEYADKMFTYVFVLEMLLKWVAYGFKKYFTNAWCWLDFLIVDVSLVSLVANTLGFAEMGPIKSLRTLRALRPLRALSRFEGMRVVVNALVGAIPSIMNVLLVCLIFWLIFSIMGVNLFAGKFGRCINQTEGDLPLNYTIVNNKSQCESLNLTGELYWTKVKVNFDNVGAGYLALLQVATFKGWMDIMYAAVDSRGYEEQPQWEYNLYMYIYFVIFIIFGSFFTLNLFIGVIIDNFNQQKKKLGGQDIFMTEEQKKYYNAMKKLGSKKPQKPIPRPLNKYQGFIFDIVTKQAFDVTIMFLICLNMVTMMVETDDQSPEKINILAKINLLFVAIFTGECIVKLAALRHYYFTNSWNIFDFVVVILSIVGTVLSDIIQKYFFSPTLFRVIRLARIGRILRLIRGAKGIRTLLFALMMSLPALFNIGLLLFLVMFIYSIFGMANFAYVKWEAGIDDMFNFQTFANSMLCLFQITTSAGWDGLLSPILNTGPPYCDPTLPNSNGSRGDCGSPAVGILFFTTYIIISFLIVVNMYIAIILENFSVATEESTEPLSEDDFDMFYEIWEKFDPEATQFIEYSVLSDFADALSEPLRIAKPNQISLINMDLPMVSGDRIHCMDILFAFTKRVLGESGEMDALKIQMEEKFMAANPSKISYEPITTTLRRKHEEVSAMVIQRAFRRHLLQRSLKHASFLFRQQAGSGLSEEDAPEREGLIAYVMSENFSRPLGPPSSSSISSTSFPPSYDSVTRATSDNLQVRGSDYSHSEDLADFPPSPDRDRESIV

hNav1.3 = hNav1.3 (Homo sapiens, UniProt Q9NY46); conditions: IonWorks Quattro, read-out: IWQ Use Nav1.3
[1] = IonWorks Quattro, use-dependent block, hNav1.5, read-out: IWQ Use Nav1.5

In the case of `CC[C@H](C)[C@@H]1NC(=O)[C@@H]2CSSC[C@@H]3NC(=O)[C@H](C(C)C)NC(=O)[C@H](CC(C)C)NC(=O)[C@H](CC(N)=O)NC(=O)[C@@H]4CCCN4C(=O)[C@H](CCCNC(=N)N)NC(=O)[C@H](CSSC[C@H](NC(=O)[C@@H](N)CC(=O)O)C(=O)N[C@@H](CC(C)C)C(=O)NCC(=O)N[C@@H](C)C(=O)N[C@@H](CCSC)C(=O)N[C@@H](CCCNC(=N)N)C(=O)N[C@@H](CCCCN)C(=O)N2)NC(=O)[C@H](CSSC[C@@H](C(=O)N[C@@H](CCCCN)C(=O)N[C@@H](Cc2ccc(O)cc2)C(=O)N[C@H](C(=O)N[C@@H](Cc2ccccc2)C(N)=O)C(C)C)NC(=O)[C@H](Cc2c[nH]c4ccccc24)NC(=O)[C@H](Cc2c[nH]cn2)NC(=O)[C@H](Cc2c[nH]cn2)NC(=O)[C@H]([C@@H](C)O)NC(=O)[C@H](CCCNC(=N)N)NC(=O)[C@H](CO)NC3=O)NC(=O)[C@H](CCCCN)NC(=O)[C@H](CC(=O)O)NC(=O)[C@H](CC(N)=O)NC(=O)[C@H](CC(=O)O)NC(=O)[C@@H]2CCCN2C1=O` [compound 737] (H-DCLGAMRKCIPDNDKCCRPNLVCSRTHHWCKYVF-NH2; disulfide 2-17, 9-23, 16-30), the IC50 (hNav1.7; use-dependent block, hNav1.7) is reported as 400 nM, the IC50 (hNav1.5; [1]) is reported as 19.2 µM and the IC50 (hNav1.3; use-dependent block, hNav1.3) is reported as 1600 nM.

`CC[C@H](C)[C@@H]1NC(=O)[C@@H]2CSSC[C@@H]3NC(=O)[C@H](C(C)C)NC(=O)[C@H](CC(C)C)NC(=O)[C@H](CC(N)=O)NC(=O)[C@@H]4CCCN4C(=O)[C@H](CCCNC(=N)N)NC(=O)[C@H](CSSC[C@H](NC(=O)[C@@H](N)CC(=O)O)C(=O)N[C@@H](CC(C)C)C(=O)NCC(=O)N[C@@H](C4CCCCC4)C(=O)N[C@@H](Cc4ccccc4)C(=O)N[C@@H](CCCNC(=N)N)C(=O)N[C@@H](CCCCN)C(=O)N2)NC(=O)[C@H](CSSC[C@@H](C(=O)N[C@@H](CCCCN)C(=O)N[C@@H](Cc2ccc(O)cc2)C(=O)N[C@H](C(=O)N[C@@H](Cc2ccccc2)C(N)=O)C(C)C)NC(=O)[C@H](Cc2c[nH]c4ccccc24)NC(=O)[C@H](CCCCN)NC(=O)[C@H](Cc2c[nH]cn2)NC(=O)[C@H]([C@@H](C)O)NC(=O)[C@H](CCCNC(=N)N)NC(=O)[C@H](CO)NC3=O)NC(=O)[C@H](CCCCN)NC(=O)[C@H](CC(=O)O)NC(=O)[C@H](CC(N)=O)NC(=O)[C@H](CC(=O)O)NC(=O)[C@@H]2CCCN2C1=O` [compound 616] (H-DCLG[Chg]FRKCIPDNDKCCRPNLVCSRTHKWCKYVF-NH2; disulfide 2-17, 9-23, 16-30) gave an IC50 (hNav1.7; use-dependent protocol, hNav1.7) of 23 nM, an IC50 (hNav1.5; IonWorks Quattro, use-dependent protocol, hNav1.5, read-out: IWQ Use Nav1.5) of 6.9 µM and an IC50 (hNav1.3; use-dependent protocol, hNav1.3) of 75 nM.

With `CC[C@H](C)[C@@H]1NC(=O)[C@@H]2CSSC[C@@H]3NC(=O)[C@H](C(C)C)NC(=O)[C@H](CC(C)C)NC(=O)[C@H](CC(N)=O)NC(=O)[C@@H]4CCCN4C(=O)[C@H](CCCNC(=N)N)NC(=O)[C@H](CSSC[C@H](NC(=O)[C@@H](N)CC(=O)O)C(=O)N[C@@H](CC(C)C)C(=O)NCC(=O)N[C@@H](Cc4ccccc4)C(=O)N[C@@H](CCSC)C(=O)N[C@@H](CCCNC(=N)N)C(=O)N[C@@H](CCCCN)C(=O)N2)NC(=O)[C@H](CSSC[C@@H](C(=O)N[C@@H](CCCCN)C(=O)N[C@@H](Cc2ccc(O)cc2)C(=O)N[C@H](C(=O)N[C@@H](Cc2ccccc2)C(N)=O)C(C)C)NC(=O)[C@H](Cc2c[nH]c4ccccc24)NC(=O)[C@H](CCCCN)NC(=O)[C@H](Cc2cnc[nH]2)NC(=O)[C@H]([C@@H](C)O)NC(=O)[C@H](CCCNC(=N)N)NC(=O)[C@H](CO)NC3=O)NC(=O)[C@H](CCCCN)NC(=O)[C@H](CC(=O)O)NC(=O)[C@H](CCCNC(=N)N)NC(=O)[C@H](CC(=O)O)NC(=O)[C@@H]2CCCN2C1=O` [compound 103] (H-DCLGFMRKCIPDRDKCCRPNLVCSRTHKWCKYVF-NH2; disulfide 2-17, 9-23, 16-30) the IC50 (hNav1.7; Use) was 160 nM, the IC50 (hNav1.5; IonWorks Quattro, Use, read-out: IWQ Use Nav1.5) was 16 µM and the IC50 (hNav1.3; Use) was 220 nM.

`CC[C@H](C)[C@@H]1NC(=O)[C@@H]2CSSC[C@@H]3NC(=O)[C@H](C(C)C)NC(=O)[C@H](CC(C)C)NC(=O)[C@H](CC(N)=O)NC(=O)[C@@H]4CCCN4C(=O)[C@H](CCCNC(=N)N)NC(=O)[C@H](CSSC[C@H](NC(=O)[C@@H](N)CC(=O)O)C(=O)N[C@@H](CC(C)C)C(=O)NCC(=O)N[C@@H](Cc4ccccc4)C(=O)N[C@@H](CCSC)C(=O)N[C@@H](CCCNC(=N)N)C(=O)N[C@@H](CCCCN)C(=O)N2)NC(=O)[C@H](CSSC[C@@H](C(=O)N[C@@H](CCCCN)C(=O)N[C@@H](Cc2ccc(O)cc2)C(=O)N[C@@H](Cc2cccc4ccccc24)C(=O)N[C@@H](Cc2ccccc2)C(N)=O)NC(=O)[C@H](Cc2c[nH]c4ccccc24)NC(=O)[C@H](CCCCN)NC(=O)[C@H](Cc2cnc[nH]2)NC(=O)[C@H]([C@@H](C)O)NC(=O)[C@H](CCCNC(=N)N)NC(=O)[C@H](CO)NC3=O)NC(=O)[C@H](CCCCN)NC(=O)[C@H](CC(=O)O)NC(=O)[C@H](CC(N)=O)NC(=O)[C@H](CC(=O)O)NC(=O)[C@@H]2CCCN2C1=O` [compound 168] (H-DCLGFMRKCIPDNDKCCRPNLVCSRTHKWCKY[1Nal]F-NH2; disulfide 2-17, 9-23, 16-30) gave an IC50 (hNav1.7; Table 26, use, […]) of 60 nM, an IC50 (hNav1.5; IWQ Use Nav1.5 (μM)) of 15.7 µM and an IC50 (hNav1.3; Table 26, use, […]) of 20 nM.

Molecule `CC[C@H](C)[C@@H]1NC(=O)[C@@H]2CSSC[C@@H]3NC(=O)[C@H](C(C)C)NC(=O)[C@H](CC(C)C)NC(=O)[C@H](CC(N)=O)NC(=O)[C@@H]4CCCN4C(=O)[C@H](CCCNC(=N)N)NC(=O)[C@H](CSSC[C@H](NC(=O)[C@@H](N)CC(=O)O)C(=O)N[C@@H](CC(C)C)C(=O)NCC(=O)N[C@@H](C)C(=O)N[C@@H](CCSC)C(=O)N[C@@H](CCCNC(=N)N)C(=O)N[C@@H](CCCCN)C(=O)N2)NC(=O)[C@H](CSSC[C@@H](C(=O)N[C@@H](CCCCN)C(=O)N[C@@H](Cc2ccc(O)cc2)C(=O)N[C@H](C(=O)N[C@@H](CCC(=O)O)C(N)=O)C(C)C)NC(=O)[C@H](Cc2c[nH]c4ccccc24)NC(=O)[C@H](CCCCN)NC(=O)[C@H](Cc2c[nH]cn2)NC(=O)[C@H]([C@@H](C)O)NC(=O)[C@H](CCCNC(=N)N)NC(=O)[C@H](CO)NC3=O)NC(=O)[C@H](CCCCN)NC(=O)[C@H](CC(=O)O)NC(=O)[C@H](CC(N)=O)NC(=O)[C@H](CC(=O)O)NC(=O)[C@@H]2CCCN2C1=O` [compound 430] (H-DCLGAMRKCIPDNDKCCRPNLVCSRTHKWCKYVE-NH2; disulfide 2-17, 9-23, 16-30) has an IC50 (hNav1.7; use-dependent block, hNav1.7) greater than 5000 nM, an IC50 (hNav1.5; [1]) greater than 5 µM and an IC50 (hNav1.3; use-dependent block, hNav1.3) greater than 5000 nM.

In the case of `CC[C@H](C)[C@@H]1NC(=O)[C@@H]2CSSC[C@@H]3NC(=O)[C@H](C(C)C)NC(=O)[C@H](CC(C)C)NC(=O)[C@H](CC(N)=O)NC(=O)[C@@H]4CCCN4C(=O)[C@H](CCCNC(=N)N)NC(=O)[C@H](CSSC[C@H](NC(=O)[C@@H](N)CC(=O)O)C(=O)N[C@@H](CC(C)C)C(=O)NCC(=O)N[C@@H](Cc4cccnc4)C(=O)N[C@@H](Cc4ccccc4)C(=O)N[C@@H](CCCNC(=N)N)C(=O)N[C@@H](CCCCN)C(=O)N2)NC(=O)[C@H](CSSC[C@@H](C(=O)N[C@@H](CCCCN)C(=O)N[C@@H](Cc2ccc(O)cc2)C(=O)N[C@H](C(=O)N[C@@H](Cc2ccccc2)C(N)=O)C(C)C)NC(=O)[C@H](Cc2c[nH]c4ccccc24)NC(=O)[C@H](CCCCN)NC(=O)[C@H](Cc2c[nH]cn2)NC(=O)[C@H]([C@@H](C)O)NC(=O)[C@H](CCCNC(=N)N)NC(=O)[C@H](CO)NC3=O)NC(=O)[C@H](CCCCN)NC(=O)[C@H](CC(=O)O)NC(=O)[C@H](CC(N)=O)NC(=O)[C@H](CC(=O)O)NC(=O)[C@@H]2CCCN2C1=O` [compound 613] (H-DCLG[3Pal]FRKCIPDNDKCCRPNLVCSRTHKWCKYVF-NH2; disulfide 2-17, 9-23, 16-30), the IC50 (hNav1.7; use-dependent block, hNav1.7) is reported as 950 nM, the IC50 (hNav1.5; [1]) is reported as 18.7 µM and the IC50 (hNav1.3; use-dependent block, hNav1.3) is reported as 3600 nM.
